In ChEMBL document CHEMBL1201862, “PubChem BioAssay data set” (2004):
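Each compound was tested at five concentrations against cells in 96-well plates for 48 hours. GI50 marks 50% less growth.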 Calls of active or inactive are those of the source. Rule as the data show it: active = GI50 up to about 1.1 µM and inactive = higher. Residues, ends and D or L forms follow the SMILES beside them. *: point of attachment. Ethyl(2-NMe3+) = C[N+](C)(C)CC*; Boc = CC(C)(C)OC(=O)*

Key:
Test in all cases: NCI tumour cell line growth inhibition, 48 h
[1] = system: 786-0
[2] = system: ACHN
[3] = system: CCRF-CEM
[4] = system: EKVX
[5] = system: HCC 2998
[6] = system: HCT-15
[7] = system: HL-60
[8] = system: Hs-578T
[9] = system: LOX IMVI
[10] = system: Malme-3M
[11] = system: NCI-H23
[12] = system: NCI-H460
[13] = system: OVCAR-3
[14] = system: OVCAR-4
[15] = system: SK-MEL-5
[16] = system: SNB-19
[17] = system: SR
[18] = system: SW-620
[19] = system: U-251
[20] = system: RXF 393

SMILES	GI50 [1]	GI50 [2]	GI50 [3]	GI50 [4]	GI50 [5]	GI50 [6]	GI50 [7]	GI50 [8]	GI50 [9]	GI50 [10]	GI50 [11]	GI50 [12]	GI50 [13]	GI50 [14]	GI50 [15]	GI50 [16]	GI50 [17]	GI50 [18]	GI50 [19]	GI50 [20]
NC(=O)c1nnc2cc(F)ccc2c1N	> 100 µM (inactive)	80.4 µM (inactive)	> 100 µM (inactive)	85.7 µM (inactive)	> 100 µM (inactive)	> 100 µM	> 100 µM (inactive)	> 100 µM (inactive)	78.3 µM (inactive)	> 100 µM (inactive)	> 100 µM (inactive)	> 100 µM (inactive)	> 100 µM (inactive)	> 100 µM (inactive)	> 100 µM (inactive)	> 100 µM (inactive)	> 100 µM (inactive)	> 100 µM (inactive)	> 100 µM (inactive)	
CC(NC(=O)C(Cc1ccc(OCC[N+](C)(C)C)cc1)NC(=O)OC(C)(C)C)C(=O)NC(Cc1ccccc1)C(=O)NCC(N)=O (stereo unspecified) (Boc-Y(Ethyl(2-NMe3+))AFG-NH2; configuration not given here)	10.4 µM (inactive)	22.1 µM (inactive)			16.5 µM (inactive)	> 100 µM	> 100 µM (inactive)	22.4 µM (inactive)	30.4 µM (inactive)	20.9 µM (inactive)	15.5 µM (inactive)	70.5 µM (inactive)	18.2 µM (inactive)	38.1 µM (inactive)	> 100 µM (inactive)	13.2 µM (inactive)		> 100 µM (inactive)	3.24 µM (inactive)	11.7 µM (inactive)
CCOc1cc2c(cc1O)C(=O)C[C@@H]1[C@@H]2CC[C@]2(C)[C@@H](O)CC[C@@H]12	0.177 µM (active)	0.168 µM (active)	0.162 µM (active)	10.1 µM (inactive)	1.36 µM (inactive)	0.0556 µM	0.185 µM (active)	0.163 µM (active)	0.189 µM (active)	0.294 µM (active)	0.33 µM (active)	0.0982 µM (active)	0.092 µM (active)	35.1 µM (inactive)	0.0634 µM (active)	0.189 µM (active)		0.126 µM (active)	0.173 µM (active)	1.59 µM (inactive)
OC1(c2ccc(Cl)cc2)c2ccccc2C2=NCc3ccccc3CN21 (stereo unspecified)	5.45 µM (inactive)	4.45 µM (inactive)	7.6 µM (inactive)	5.48 µM (inactive)	2.18 µM (inactive)	7.14 µM	4.94 µM (inactive)	14.9 µM (inactive)	9.2 µM (inactive)	13.9 µM (inactive)	6.97 µM (inactive)	11.2 µM (inactive)	1.7 µM (inactive)	12.6 µM (inactive)	13.2 µM (inactive)	3.51 µM (inactive)	8.53 µM (inactive)	2.69 µM (inactive)	7.24 µM (inactive)	
O=C1OC(c2ccccc2)N(C(=O)c2ccccc2)C1Cc1ccc(OCc2ccccc2)cc1 (stereo unspecified)	33.1 µM (inactive)	6.82 µM (inactive)	> 100 µM (inactive)	9.57 µM (inactive)	21.8 µM (inactive)	> 100 µM	9.89 µM (inactive)	35.6 µM (inactive)	8.11 µM (inactive)		36.7 µM (inactive)	60 µM (inactive)			43.8 µM (inactive)	> 100 µM (inactive)	> 100 µM (inactive)	> 100 µM (inactive)	> 100 µM (inactive)	
O=C(NC1=NC2C=CC([N+](=O)[O-])=CC2S1)C(=O)Nn1c(S)nc2ccccc2c1=O (stereo unspecified)	> 100 µM (inactive)	24.1 µM (inactive)	45.9 µM (inactive)	33.7 µM (inactive)	> 100 µM (inactive)	21.2 µM	56.4 µM (inactive)	39.4 µM (inactive)	67.3 µM (inactive)	80 µM (inactive)	40.7 µM (inactive)	80.5 µM (inactive)	> 100 µM (inactive)	27.4 µM (inactive)	88.1 µM (inactive)	24.3 µM (inactive)		> 100 µM (inactive)	66.7 µM (inactive)	50.6 µM (inactive)
N#CSc1ccc(S(N)(=O)=O)cc1	26.1 µM (inactive)	29.6 µM (inactive)	8.07 µM (inactive)	> 100 µM (inactive)	> 100 µM (inactive)	40.4 µM	14.3 µM (inactive)	> 100 µM (inactive)	31.3 µM (inactive)	83.6 µM (inactive)	> 100 µM (inactive)	> 100 µM (inactive)	52.2 µM (inactive)	30.3 µM (inactive)	75.2 µM (inactive)	> 100 µM (inactive)		23.9 µM (inactive)	17.4 µM (inactive)	26.1 µM (inactive)
CC1=NN(c2ccccc2)C(=O)/C1=C1\SC(c2ccccc2)(c2ccccc2)c2ccccc21	> 100 µM (inactive)	> 100 µM (inactive)	> 100 µM (inactive)	> 100 µM (inactive)	> 100 µM (inactive)	> 100 µM	> 100 µM (inactive)	> 100 µM (inactive)	> 100 µM (inactive)	> 100 µM (inactive)	> 100 µM (inactive)	> 100 µM (inactive)	> 100 µM (inactive)	> 100 µM (inactive)	> 100 µM (inactive)	> 100 µM (inactive)		> 100 µM (inactive)	3.78 µM (inactive)	> 100 µM (inactive)
Nc1ncnc2c1ncc(=O)n2C1CC(O)C(CO)O1 (stereo unspecified)	> 100 µM (inactive)	> 100 µM (inactive)	> 100 µM (inactive)	> 100 µM (inactive)	> 100 µM (inactive)	> 100 µM		> 100 µM (inactive)	> 100 µM (inactive)	> 100 µM (inactive)	> 100 µM (inactive)	> 100 µM (inactive)	> 100 µM (inactive)	> 100 µM (inactive)	> 100 µM (inactive)	> 100 µM (inactive)	> 100 µM (inactive)	> 100 µM (inactive)	> 100 µM (inactive)	
OCCSCc1cc2c(O)c(c1)Cc1cc(CSCCO)cc(c1O)Cc1cc(CSCCO)cc(c1O)Cc1cc(CSCCO)cc(c1O)C2	3.29 µM (inactive)	3.19 µM (inactive)	5.35 µM (inactive)	15 µM (inactive)	9.38 µM (inactive)	8.81 µM	4.04 µM (inactive)	8.43 µM (inactive)	3.44 µM (inactive)	2.04 µM (inactive)	5.37 µM (inactive)	2.89 µM (inactive)	1.73 µM (inactive)	3.61 µM (inactive)	2.69 µM (inactive)	4.69 µM (inactive)		3.92 µM (inactive)	4.48 µM (inactive)	4.58 µM (inactive)
C#CC(O)/C=C/C(O)CCCC(O)CC#CC(O)C#CCCCCC(O)/C=C/CCCCCC(=O)CCCCCCCCCCCCCC(O)C(O)C#CC(=O)O (stereo unspecified)	> 25 µM (inactive)	> 25 µM (inactive)	6.81 µM (inactive)	> 25 µM (inactive)	> 25 µM (inactive)	> 25 µM	> 25 µM (inactive)	> 25 µM (inactive)	4.6 µM (inactive)	> 25 µM (inactive)	> 25 µM (inactive)	> 25 µM (inactive)		15.8 µM (inactive)	> 25 µM (inactive)	> 25 µM (inactive)	7.13 µM (inactive)		> 25 µM (inactive)	
